IC50 and Kd data for 1 compound are collected here from ChEMBL document CHEMBL6109079, “Discovery of novel pyrimidinetrione derivatives as DprE1 inhibitors with potent antimycobacterial activities” (Eur J Med Chem, 2025).

In general, pIC50 refers to −log10 of the IC50, conventionally taken in molar units. Broadly, the pKd is the negative decadic logarithm of the Kd, by convention in mol/L.

Experiment [1] is described as follows: Inhibition of DprE1 (unknown origin) preincubated with FAD followed by compound addition and measured after 2 mins by fluorescence based microplate reader. More on the design: species or system Bacteria.
For experiment [2], the target named is T1, Decaprenylphosphoryl-beta-D-ribose oxidase (Mycobacterium smegmatis (strain ATCC 700084 / mc(2)155), UniProt A0R607).
T1 sequence (A0R607 whole entry): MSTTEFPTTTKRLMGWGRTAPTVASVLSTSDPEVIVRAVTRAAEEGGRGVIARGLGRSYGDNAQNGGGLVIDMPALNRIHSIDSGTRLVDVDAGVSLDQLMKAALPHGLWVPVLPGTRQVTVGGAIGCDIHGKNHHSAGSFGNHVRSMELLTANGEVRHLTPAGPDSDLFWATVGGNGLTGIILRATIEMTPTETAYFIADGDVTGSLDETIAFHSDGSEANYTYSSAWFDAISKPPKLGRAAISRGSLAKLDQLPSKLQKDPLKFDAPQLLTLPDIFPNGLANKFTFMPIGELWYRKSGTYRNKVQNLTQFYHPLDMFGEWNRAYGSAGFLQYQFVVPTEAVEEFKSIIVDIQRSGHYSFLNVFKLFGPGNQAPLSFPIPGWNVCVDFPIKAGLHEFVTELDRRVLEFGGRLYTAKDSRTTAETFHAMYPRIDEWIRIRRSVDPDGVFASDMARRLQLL
As to the kind of experiment: Binding affinity to full length N-terminal 6his-tagged Mycobacterium smegmatis ATCC 607 DprE1 extracted from Escherichia coli BL21 assessed as dissociation constant incubated for 10 mins. More on the design: species or system Mycolicibacterium smegmatis.

The nature of experiment [3]: Binding affinity to recombinant DprE1 (unknown origin) assessed as dissociation constant incubated for 10 mins by MST analysis. More on the design: species or system Bacteria.

pIC50, pKd: −log10 of the molar value.

`C=CCN1C(=O)NC(=O)/C(=C\NNC(=O)c2ccncc2)C1=O`: in experiment [1], the pIC50 is 4.26. The values for the pKd in experiment [2] and in experiment [3] were 8.60 and 7.60, respectively.
